Assay results as given in US6979686B1, “Substituted pyrazoles as p38 kinase inhibitors” (Pharmacia Corporation, priority 2001, dated 2005).
Read-outs that look alike come from different tables or passages of the source.

Target: T1, human p38 kinase alpha (Homo sapiens, UniProt Q16539)
T1 construct: GST (N, cleaved yes); made in house; host or cells: E. coli DH10B
Experiment: p38 kinase in vitro assay, phosphorylation of biotinylated PHAS-I with 32P-ATP
Type: biochemical
Conditions: for inhibition at 1 µM: read-out: P38 alpha kinase % inhib @ conc.

[1] = in vitro P38-alpha kinase, read-out: P38 alpha kinase IC50
[2] = in vitro P38-alpha kinase inhibition, read-out: P38 alpha kinase IC50

T1 sequence (Q16539 whole entry): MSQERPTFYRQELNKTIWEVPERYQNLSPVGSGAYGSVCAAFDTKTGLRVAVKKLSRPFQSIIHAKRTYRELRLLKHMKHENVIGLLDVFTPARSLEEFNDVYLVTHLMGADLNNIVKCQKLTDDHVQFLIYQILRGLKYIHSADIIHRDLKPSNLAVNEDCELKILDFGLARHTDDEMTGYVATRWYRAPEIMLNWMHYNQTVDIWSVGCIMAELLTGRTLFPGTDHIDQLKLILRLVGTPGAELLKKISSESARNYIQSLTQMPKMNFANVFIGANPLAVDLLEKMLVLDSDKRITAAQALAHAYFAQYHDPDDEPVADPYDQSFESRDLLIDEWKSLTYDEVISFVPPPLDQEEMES

Compound | IC50 [1] | IC50 [2] | other results
CCOC(=O)CC(NC(=O)Cn1nc(-c2ccc(F)cc2)c(-c2ccncc2)c1C)C(=O)OCC (stereo not shown) [Example B-2352] |  |  | P38 alpha kinase % inhib @ conc. (@ 10.0 uM): 37.0% @
CCCNC(=O)NC(Cc1ccccc1)c1[nH]nc(-c2ccc(F)cc2)c1-c1ccncc1 (stereo not shown) [Example B-0780] |  | 1100 nM | 
COCC(=O)NCc1[nH]nc(-c2ccc(F)cc2)c1-c1ccncc1 [Example B-0003] |  |  | inhibition at 1 µM (@ 1.0 uM): 70%
CC(C)=CC(=O)NC(Cc1ccccc1)c1[nH]nc(-c2ccc(F)cc2)c1-c1ccncc1 (stereo not shown) [Example B-0846] |  | 1800 nM | 
Cc1cc(C)cc(-c2n[nH]c(C)c2-c2ccncc2)c1 [Example A-34] |  |  | IC50 (activated human p38 kinase alpha, PHAS-I substrate, 50 μM unlabeled ATP, read-out: p38 kinase IC50): 8000 nM
O=S(=O)(NCCc1[nH]nc(-c2ccc(F)cc2)c1-c1ccncc1)c1ccc(-c2ccon2)s1 [Example B-1113] |  | < 100 nM | 
CC(NS(=O)(=O)c1cccc(Cl)c1Cl)c1[nH]nc(-c2ccc(F)cc2)c1-c1ccncc1 (stereo not shown) [Example B-0622] |  | 76 nM | 
O=S(=O)(NCCc1[nH]nc(-c2ccc(F)cc2)c1-c1ccncc1)c1ccc(Cl)cc1 [Example B-1061] |  | 30 nM | 
O=C(NCCCc1[nH]nc(-c2ccc(F)cc2)c1-c1ccncc1)[C@H]1CCCN1 [Example B-1233] |  |  | P38 alpha kinase % inhib @ conc. (@ 1.0 uM): 85.0% @
CC(NC(=O)N(C)C)c1[nH]nc(-c2ccc(F)cc2)c1-c1ccncc1 (stereo not shown) [Example B-0584] |  | 660 nM | 
Cc1c(C)c(S(=O)(=O)NCCc2[nH]nc(-c3ccc(F)cc3)c2-c2ccncc2)c(C)c2c1OC(C)(C)CC2 [Example B-1110] |  | 470 nM | 
O=C(NC(Cc1ccccc1)c1[nH]nc(-c2ccc(F)cc2)c1-c1ccncc1)c1cccc(Br)c1 (stereo not shown) [Example B-0838] |  | 3100 nM | 
CC(NS(=O)(=O)c1cc(Cl)ccc1Cl)c1[nH]nc(-c2ccc(F)cc2)c1-c1ccncc1 (stereo not shown) [Example B-0615] |  | 80 nM | 
Cc1ccccc1C(=O)NC(C)c1[nH]nc(-c2ccc(F)cc2)c1-c1ccncc1 (stereo not shown) [Example B-0669] |  | 890 nM | 
CCCN(CCC)CC(C)NC(=O)Cn1nc(-c2ccc(F)cc2)c(-c2ccncc2)c1C (stereo not shown) [Example B-2358] |  |  | P38 alpha kinase % inhib @ conc. (@ 10.0 uM): 17.0% @
CC(NS(=O)(=O)c1cccs1)c1[nH]nc(-c2ccc(F)cc2)c1-c1ccncc1 (stereo not shown) [Example B-0575] |  | 32 nM | 
CCOC(=O)C(CCSC)NC(=O)NCCc1[nH]nc(-c2ccc(F)cc2)c1-c1ccncc1 (stereo not shown) [Example B-0935] |  |  | P38 alpha kinase % inhib @ conc. (uM) (@ 1.0 uM): 69.0% @
CC(NS(=O)(=O)c1cccc2ccccc12)c1[nH]nc(-c2ccc(F)cc2)c1-c1ccncc1 (stereo not shown) [Example B-0618] |  | 370 nM | 
COc1ccc(Br)cc1S(=O)(=O)NCCc1[nH]nc(-c2ccc(F)cc2)c1-c1ccncc1 [Example B-1102] |  | 35 nM | 

Compound | IC50 [1] | IC50 [2] | other results
Cc1c(-c2ccncc2)c(-c2ccc(F)cc2)nn1CC(=O)NCC(=O)Nc1ccccc1 [Example B-2441] |  |  | P38 alpha kinase IC50, uM or % inhib @ conc. (uM): % inhib (@ 10.0 uM): 86.0% @
O=C(NCCc1[nH]nc(-c2ccc(F)cc2)c1-c1ccncc1)Nc1ccccc1 [Example B-1043] |  |  | P38 alpha kinase % inhib @ conc. (uM) (@ 1.0 uM): 64.0% @
O=S(=O)(NCCc1[nH]nc(-c2ccc(F)cc2)c1-c1ccncc1)c1ccc(Cl)s1 [Example B-1101] |  | 26 nM | 
Cc1c(-c2ccncc2)c(-c2ccc(F)cc2)nn1CC(=O)Nc1cccc(F)c1 [Example B-2429] |  |  | P38 alpha kinase IC50, uM or % inhib @ conc. (uM): % inhib (@ 10.0 uM): 92.0% @
O=C(NCCc1[nH]nc(-c2ccc(F)cc2)c1-c1ccncc1)c1ccno1 [Example B-0992] |  |  | P38 alpha kinase % inhib @ conc. (uM) (@ 1.0 uM): 77.0% @
CC(NS(=O)(=O)c1cc(S(=O)(=O)c2ccccc2)cs1)c1[nH]nc(-c2ccc(F)cc2)c1-c1ccncc1 (stereo not shown) [Example B-0661] |  | < 100 nM | 
CNC(=O)CCC(NC(=O)c1ccccc1I)c1[nH]nc(-c2ccc(F)cc2)c1-c1ccncc1 (stereo not shown) [Example B-0861] |  | 1320 nM | 
O=S(=O)(NC(Cc1ccccc1)c1[nH]nc(-c2ccc(F)cc2)c1-c1ccncc1)c1ccc(F)cc1F (stereo not shown) [Example B-0757] |  | 540 nM | 
O=C(COCc1ccccc1)NCc1[nH]nc(-c2ccc(F)cc2)c1-c1ccncc1 [Example B-0006] |  |  | inhibition at 1 µM (@ 1.0 uM): 82%
O=S(=O)(NCCc1[nH]nc(-c2ccc(F)cc2)c1-c1ccncc1)c1cc(Cl)ccc1Cl [Example B-1066] |  | < 100 nM | 
O=S(=O)(NCCc1[nH]nc(-c2ccc(F)cc2)c1-c1ccncc1)c1ccccc1Cl [Example B-1091] |  | < 100 nM | 
Cc1c(-c2ccncc2)c(-c2ccc(F)cc2)nn1CC(=O)Nc1ccccc1C(=O)OC(C)C [Example B-2454] |  |  | P38 alpha kinase IC50, uM or % inhib @ conc. (uM): % inhib (@ 10.0 uM): 88.0% @
CC(=O)Nc1nc(C)c(S(=O)(=O)NC(C)c2[nH]nc(-c3ccc(F)cc3)c2-c2ccncc2)s1 (stereo not shown) [Example B-0607] |  | 2790 nM | 
O=S(=O)(NCCCc1[nH]nc(-c2ccc(F)cc2)c1-c1ccncc1)c1ccc2ccccc2c1 [Example B-1280] | 39 nM |  | 
O=C(NCc1[nH]nc(-c2ccc(F)cc2)c1-c1ccncc1)c1ccc(Br)cc1 [Example B-0007] |  |  | inhibition at 1 µM (@ 1.0 uM): 74%
O=S(=O)(NCc1[nH]nc(-c2ccc(F)cc2)c1-c1ccncc1)c1ccc(Br)cc1 [Example B-0224] | < 100 nM |  | 
O=S(=O)(NCCc1[nH]nc(-c2ccc(F)cc2)c1-c1ccncc1)c1cc(Cl)cc(Cl)c1 [Example B-1092] |  | 270 nM | 
CC(NS(=O)(=O)c1ccc2ccccc2c1)c1[nH]nc(-c2ccc(F)cc2)c1-c1ccncc1 (stereo not shown) [Example B-0617] |  | 45 nM | 
O=C(NCCc1[nH]nc(-c2ccc(F)cc2)c1-c1ccncc1)Nc1ccc(F)cc1 [Example B-1034] |  |  | P38 alpha kinase % inhib @ conc. (uM) (@ 1.0 uM): 66.0% @

Second part, led by results:

IC50 [1] | IC50 [2] | Compound | other results
300 nM |  | O=C(c1cc(Cl)cc(Cl)c1)N1CCC(c2[nH]nc(-c3ccc(F)cc3)c2-c2ccncc2)CC1 [Example B-1419] | 
730 nM |  | O=S(=O)(NCCCc1[nH]nc(-c2ccc(F)cc2)c1-c1ccncc1)c1cc(S(=O)(=O)c2ccccc2)cs1 [Example B-1289] | 
47 nM |  | O=C(NCCCc1[nH]nc(-c2ccc(F)cc2)c1-c1ccncc1)NC1CCN(Cc2ccccc2)CC1 [Example B-1320] | 
270 nM |  | O=C(c1ccc(F)c(C(F)(F)F)c1)N1CCC(c2[nH]nc(-c3ccc(F)cc3)c2-c2ccncc2)CC1 [Example B-1408] | 
92 nM |  | CC(C)c1cc(C(C)C)c(C(=O)NCCCc2[nH]nc(-c3ccc(F)cc3)c2-c2ccncc2)c(C(C)C)c1 [Example B-1326] | 
65 nM |  | O=C(NCCCc1[nH]nc(-c2ccc(F)cc2)c1-c1ccncc1)c1ccccc1Cl [Example B-1343] | 
97 nM |  | O=C(c1ccc(F)cc1F)N1CCC(c2[nH]nc(-c3ccc(F)cc3)c2-c2ccncc2)CC1 [Example B-1412] | 
97 nM |  | Cn1cnc(S(=O)(=O)NCCCc2[nH]nc(-c3ccc(F)cc3)c2-c2ccncc2)c1 [Example B-1291] | 
2560 nM |  | Cc1c(-c2ccncc2)c(-c2ccc(F)cc2)nn1CC(=O)NCCCCCCN(C)C [Example B-2287] | 
260 nM |  | Cc1c(-c2ccncc2)c(-c2ccc(F)cc2)nn1CC(=O)NCc1ccccc1Cl [Example B-2274] | 
40 nM |  | Cc1c(-c2ccncc2)c(-c2ccc(F)cc2)nn1CC(=O)NC[C@@H]1CCCO1 [Example B-2283] | 
14 nM |  | O=S(=O)(c1cccc2cnccc12)N1CCC(c2[nH]nc(-c3ccc(F)cc3)c2-c2ccncc2)CC1 [Example B-1443] | 
180 nM |  | O=C(NCCCc1[nH]nc(-c2ccc(F)cc2)c1-c1ccncc1)c1c(F)cccc1C(F)(F)F [Example B-1338] | 
< 100 nM |  | O=C(c1ccc(F)cc1C(F)(F)F)N1CCC(c2[nH]nc(-c3ccc(F)cc3)c2-c2ccncc2)CC1 [Example B-1410] | 
